Where a name gives a salt, the structure may show the parent alone. Read-outs that look alike come from different tables or passages of the source. Each block holds one compound with its values, some of them ahead of it.
Assays:
[1] = tested on: SNU423 hepatocellular carcinoma cells; assay: Alamar Blue cell growth inhibition, SNU423; format: cell-based
Protocol: Cell growth was measured by Alamar Blue™ staining and the OD absorbance at 570 and 600 nm was determined by a microplate reader. The percentage of cell growth inhibition was calculated and compared with the control cells that were treated with 0.1% DMSO, the vehicle for the stilbene compounds.
(§1) Various cancer cell lines were grown in 96-well plates for drug sensitivity assays. Once cells achieved 50% confluence, the incubation media was changed to the same cell growth media with different concentrations of the tested compounds or vehicle alone. Cells were then incubated for 48 hours before the cell growth inhibition study. To determine the degree of cell growth inhibition, 1/10 volume of Alamar Blue™ solution was added to each well and optical density (OD) at 570 and 600 nm was determined. The percentage of growth inhibition was calculated according to the manufacturer's formula as follows: The percentage of growth is [(117216×A570)−(80586×A600)]/[(117216×A^o570)−(80586×A^o600)]×100. In this formula, A570 is the absorbance of the treated samples at 570 nm; A600 is the absorbance of the treated samples at 600 nm; A^o570 is the absorbance of the […] samples at 570 nm; and A^o600 is the absorbance of the untreated samples at 600 nm. The two constants, 117216 and 80586, are the extinction coefficients of Alamar Blue™ at 570 and 600 nm respectively. Each concentration was repeated in triplicate to minimize the error.
(§2) We first tested the cytotoxic effect of various stilbene derivatives for their in vitro efficacy of suppressing tumor cell proliferation. Cells were first plated in 96-well plates at 50% confluence and treated with 0, 0.01, 0.03, 0.1, 0.3, 1.0, 3.0, 10 μM concentrations of stilbene derivatives for 48 hours in triplicate. Alamar Blue™ reagent was added into each well at 1/10 volume and incubated for 2 hours before quantification of the absorbance at 570 and 600 nm.

[2] = tested on: MDA-MB231 breast cancer cells; assay: Alamar Blue cell growth inhibition, MDA-MB231; format: cell-based; conditions: Homo sapiens, MDA-MB-231; MDA-MB231
Protocol: Cell growth was measured by Alamar Blue™ staining and the percentage of cell growth inhibition was calculated and compared with control cells that were treated with 0.1% DMSO, the vehicles for the stilbene compounds.
as §1, §2

[3] = tested on: MiaPaCa2 pancreatic cancer cells; assay: Alamar Blue cell growth inhibition, MiaPaCa2; format: cell-based; conditions: Homo sapiens, MIA PaCa-2; MiaPaCa2
Protocol: as §1, §2

[4] = tested on: SKOV3 ovarian cancer cells; assay: Alamar Blue cell growth inhibition, SKOV3; format: cell-based; conditions: for effective / active concentration: SKOV3, 48 hours
Protocol: Cells were incubated with various concentrations of the compounds for 48 hours. Cell growth was measured by Alamar Blue™ staining and the percentage of cell growth inhibition was calculated and compared with the control cells that were treated with 0.1% DMSO, the vehicle for the stilbene compounds.
as §1

[5] = tested on: UCI101 ovarian cancer cells; assay: Alamar Blue cell growth inhibition, UCI101; format: cell-based; conditions: UCI101, 48 hours
Protocol: Cell growth was measured by AlamarBlue™ staining and the percentage of cell growth inhibition was calculated and compared with the control cells that were treated with 0.1% DMSO, the vehicles for the stilbene compounds.
Cells were treated with the tested drug for 2 days before analysis of cell growth by Alamar Blue™ staining. Cells treated with 0.1% DMSO were used as control and set as 100%.
(a) In vitro sensitivity of UCI101 cells toward three potential stilbene prodrugs, 5a-c, was tested in 96-well plates using Alamar Blue™ assays to determine cell growth inhibition. […] (b) 5b induces cell cycle change and apoptosis in UCI101 cells. Cells were incubated with 5b at 1, 3, 10 μM for 16 hours followed by PI staining and flow cytometry analysis. A subG0/1 population, representing apoptotic cells, appeared along with a decrease of the G1/G2 ratio after cells were treated with 3 μM 5b. Higher concentration (10 μM) of 5b completely killed cells, as was the case with stilbene 4a at […]. (c) Cells treated with stilbene 4a and 5b were stained with phospho-histone 3B, a mitotic marker. The positive signals of phospho-histone 3B were shown in green and nuclei were stained with DAPI in blue. […] (d) In vivo efficacy of 5b compared with stilbene 4a. Nude mice were injected with UCI101 ovarian cancer cells and treated with 7 doses of 5b,c or stilbene 4a every 2-3 days. Tumor volume was calculated and plotted against days.
as §1, §2

MDA-MB231 cells = assay: immunofluorescent staining of tubulin, MDA-MB231; format: cell-based; conditions: CA4 10 nM, stilbene 4a 100 nM, vincristine 100 nM, 5b 3 μM; 16 hours
Source text: Nuclei were stained with 4′,6-diamidino-2-phenylindole (DAPI). Control cells show the reticular pattern of the microtubule network.

[6] = tested on: UCI101 ovarian cancer cells; assay: Western blot of signal transduction events, UCI101; format: cell-based; conditions: for phosphorylation of Chk1: 36 hours
Protocol: All these agents are microtubule interfering agents but with different binding sites. Cells were harvested at 0, 4, 8, 16 and 36 hours after drug treatment for Western blot analysis. […] Phosphorylation of both Cdc25C and Cdc2 disappeared after 16 hours and slightly recovered at 36 hours. […] Akt phosphorylation decreased after 16 hours of treatment.
In order to understand the mechanism of resistance of stilbenes, various signal transduction pathways were investigated to examine how cells respond to stilbene treatment. UCI101 ovarian cancer cells were treated with stilbenes 4a, 4c or paclitaxel (Taxol) at 0.1 μM for 0, 4, 8, 16 and 36 hours. Cells were harvested for Western blotting. Changes in the kinases involved in cell cycle progression from G2-M transition were first determined in Cdc2, Cdc25c, and mitotic spindle check point regulator BubR1. […] 36 hours after treatment, rephosphorylation of Cdc2 was observed. […] The higher molecular weight isomer of Cdc25c, the mitotic form, increased at 16 and 36 hours. […] A similar study was then performed with other microtubule interfering agents such as combretastatin A4, 13a and vincristine for comparison. A similar trend was observed among these three microtubule interfering agents (FIG. 18).

[7] = acute toxicity in dose escalating study; format: in vivo, mice
Protocol: Acute toxicity in dose escalating study: We investigated the efficacy of stilbene 4a in vivo using mouse xenograft model. First we determined the maximal tolerated dose of stilbene 4a since it has a higher potency in vitro. […] Subsequently mice fully recovered 30 min after injection.

HL60 cells = conditions: cited from earlier work; for IC50: read-out: IC50, induction of HL60 apoptosis
Tubulin (>99% pure) = assay: tubulin polymerization assay (OD 340 nm); format: biochemical; conditions: OD340 nm; nocodazole and paclitaxel 10 μM
Protocol: FIG. 3a-d. Stilbenes inhibit tubulin polymerization. (a) Effect of stilbene 4a. Pure tubulin was incubated with various concentrations of stilbene 4a, 10 μM nocodazole, and 10 μM paclitaxel in the polymerization buffer. The OD at 340 nm was monitored every minute by SpectraMAX 250 and plotted against time. (b) Effect of stilbene 4c. (c) Comparison of same concentrations of stilbenes 4a, 4a trans, 4c and 4c trans with control. […] Tubulin was incubated with [^3H]-colchicine and various concentrations of different stilbenes for 20 min. Tubulin was then separated from the unbound [^3H]-colchicine by Microcon-30 and washed three times with PBS. The radioactivity of the tubulin was counted. […] All experiments were done in triplicates.
The tubulin polymerization assay kit was purchased from Cytoskeleton (Denver, Colo.). Tubulin (>99% pure) was mixed with general tubulin buffer (GTB, 80 mM PIPES pH 6.9, 2 mM MgCl2, 0.5 mM EGTA, and 1 mM GTP) in a 96-well plate at 37° C. Absorbance at 340 nm was measured every 1 min for 60 min by SpectraMAX 250 (Molecular Devices, Sunnyville, Calif.). Analysis of the results was performed by SoftMAX Pro version 1.2.0 from the same company.

[8] = in vivo; cited from earlier work

IC50 ([1]; Homo sapiens, SNU-423, 48 h, read-out: IC50 (50% growth inhibition), SNU423, 48 hours): ≤ 300 nM
IC50 ([1]; read-out: IC50 (50% growth inhibition), SNU423, 48 hours, hydrochloride): 300 nM
IC50 [2]: 80 nM
IC50 [3]: 300 nM
Compound: COc1cc(/C=C\c2ccc(OC)c(N)c2)cc(OCCO)c1 [10a, (Z)-2-{3-[2-(3-Amino-4-methoxy-phenyl)-vinyl]-5-methoxy-phenoxy}-ethanol, hydrochloride]
activity ([4]; SKOV3): also effective
effective / active concentration [4]: 0.1 µM

IC50 ([4]; Homo sapiens, SK-OV-3, SKOV, read-out: IC50): 50 to 100 nM
Compound: CC[C@]1(O)C[C@H]2CN(CCc3c([nH]c4ccccc34)[C@@](C(=O)OC)(c3cc4c(cc3OC)N(C=O)[C@H]3[C@@](O)(C(=O)OC)[C@H](OC(C)=O)[C@]5(CC)C=CCN6CC[C@]43[C@@H]65)C2)C1 [vincristine, reference compound]
relative potency ([1]; SNU423): equivalent
relative potency / activity [5]: about equal in their potency
effective / active concentration [4]: 0.1 µM
microtubule pattern (MDA-MB231 cells): fine granular pattern without formation of microtubules
phosphorylation of Stat3 ([6]; 0.1 μM): more pronounced
phosphorylation of Chk1 [6]: do not cause more phosphorylation of Chk1

Compound: COc1cc(/C=C\c2ccc(OC)c(N)c2)cc(OC)c1 [stilbene 5c, cis-3,4′,5-trimethoxy-3′-aminostilbene]
acute toxicity at 6 or 33 mg/kg ([7]; 6 or 33 mg/kg intravenously): did not cause any acute toxicity
acute toxicity at 72 and 97 mg/kg ([7]; 72 and 97 mg/kg intravenously): transient weakness as shown by dragging feet and sluggish movement
time to full recovery after injection ([7]; 72 and 97 mg/kg intravenously): 30 min
cytotoxicity under overexpression of MDR gene (HL60 cells; Roberti et al.): not affected by overexpression of multiple-drug resistant (MDR) gene
IC50 (HL60 cells; Roberti et al.): 30 nM

Compound: CC(=O)O[C@H]1C(=O)[C@@]2(C)[C@H]([C@H](OC(=O)c3ccccc3)[C@]3(O)C[C@H](OC(=O)[C@H](O)[C@@H](NC(=O)c4ccccc4)c4ccccc4)C(C)=C1C3(C)C)[C@]1(OC(C)=O)CO[C@@H]1C[C@@H]2O [paclitaxel, reference compound]
effect on tubulin polymerization (Tubulin (>99% pure)): enhanced
phosphorylation of Cdc2 at Tyr15 ([6]; 0.1 μM, 16 hours): decreased dramatically
phosphorylation of Chk1 [6]: do not cause more phosphorylation of Chk1

Compound: COc1cc(/C=C\c2ccc(OC)c(O)c2)cc(OC)c1 [stilbene 6c, cis-3,4′,5-trimethoxy-3′-hydroxystilbene]
cytotoxicity under overexpression of MDR gene (HL60 cells): not affected by overexpression of multiple-drug resistant (MDR) gene
IC50 (HL60 cells; Roberti et al.): 30 nM

Compound: COc1cc2c(c(OC)c1OC)-c1ccc(OP(=O)(O)O)cc1[C@@H](NC(C)=O)CC2 [ZD6126]
toxicity in phase I clinical trials [8]: cardiac toxicity (such as decreasing left ventricular ejection fraction) and dose limiting toxicity were observed

— US7781580B2, “Stilbene derivatives as new cancer therapeutic agents” (Virginia Commonwealth University, priority 2007, dated 2010)
